We go through five molecules from ChEMBL document CHEMBL2151039, “Discovery and development of α7 nicotinic acetylcholine receptor modulators” (J Med Chem, 2011).

Data set [1] addresses T1, Neuronal acetylcholine receptor; alpha4/beta2 (Homo sapiens, UniProt P17787+P43681). Nature of the data set: Antagonist activity at alpha4beta2 nAChR assessed as amplitude of acetylcholine evoked currents. It counts as functional.
The target of data set [2] is Neuronal acetylcholine receptor; alpha3/beta4 (Homo sapiens, UniProt P30926+P32297). Nature of the data set: Antagonist activity at alpha3beta4 nAChR assessed as amplitude of acetylcholine evoked currents. It is filed as functional.
Sequence of Neuronal acetylcholine receptor; alpha3/beta4 (P30926 whole entry): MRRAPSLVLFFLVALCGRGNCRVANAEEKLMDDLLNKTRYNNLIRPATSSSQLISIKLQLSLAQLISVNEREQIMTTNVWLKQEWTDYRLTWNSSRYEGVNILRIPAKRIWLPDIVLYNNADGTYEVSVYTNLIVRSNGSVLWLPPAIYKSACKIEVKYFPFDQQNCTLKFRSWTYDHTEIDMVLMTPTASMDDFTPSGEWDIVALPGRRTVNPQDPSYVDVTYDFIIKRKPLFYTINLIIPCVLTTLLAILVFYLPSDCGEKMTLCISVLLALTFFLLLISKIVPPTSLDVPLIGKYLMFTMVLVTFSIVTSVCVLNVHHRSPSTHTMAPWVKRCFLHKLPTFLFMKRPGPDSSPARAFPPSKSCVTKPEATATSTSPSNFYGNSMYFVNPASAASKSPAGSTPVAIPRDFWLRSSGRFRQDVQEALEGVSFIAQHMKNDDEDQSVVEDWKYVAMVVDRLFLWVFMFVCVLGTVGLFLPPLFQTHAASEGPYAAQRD
Sequence of Neuronal acetylcholine receptor; alpha3/beta4 (P32297 whole entry): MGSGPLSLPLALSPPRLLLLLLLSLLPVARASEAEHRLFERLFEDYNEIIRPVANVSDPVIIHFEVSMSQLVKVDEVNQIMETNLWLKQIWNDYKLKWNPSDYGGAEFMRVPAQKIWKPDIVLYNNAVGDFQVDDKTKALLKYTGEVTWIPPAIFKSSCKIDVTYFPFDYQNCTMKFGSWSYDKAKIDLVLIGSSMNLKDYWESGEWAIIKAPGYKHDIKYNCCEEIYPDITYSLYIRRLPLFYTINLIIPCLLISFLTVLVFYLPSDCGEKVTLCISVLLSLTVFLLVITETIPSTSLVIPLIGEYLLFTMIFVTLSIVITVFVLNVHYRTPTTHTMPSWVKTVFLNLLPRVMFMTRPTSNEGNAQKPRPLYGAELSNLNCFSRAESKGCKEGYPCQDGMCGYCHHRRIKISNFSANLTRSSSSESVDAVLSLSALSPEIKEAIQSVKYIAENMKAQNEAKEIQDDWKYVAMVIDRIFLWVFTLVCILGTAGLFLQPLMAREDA
The target in data set [3] is T2, Neuronal acetylcholine receptor subunit alpha-7 (Homo sapiens, UniProt P36544). Briefly: Antagonist activity at alpha7 nAChR assessed as amplitude of acetylcholine evoked currents. It is filed as functional.
T2 sequence (P36544 whole entry): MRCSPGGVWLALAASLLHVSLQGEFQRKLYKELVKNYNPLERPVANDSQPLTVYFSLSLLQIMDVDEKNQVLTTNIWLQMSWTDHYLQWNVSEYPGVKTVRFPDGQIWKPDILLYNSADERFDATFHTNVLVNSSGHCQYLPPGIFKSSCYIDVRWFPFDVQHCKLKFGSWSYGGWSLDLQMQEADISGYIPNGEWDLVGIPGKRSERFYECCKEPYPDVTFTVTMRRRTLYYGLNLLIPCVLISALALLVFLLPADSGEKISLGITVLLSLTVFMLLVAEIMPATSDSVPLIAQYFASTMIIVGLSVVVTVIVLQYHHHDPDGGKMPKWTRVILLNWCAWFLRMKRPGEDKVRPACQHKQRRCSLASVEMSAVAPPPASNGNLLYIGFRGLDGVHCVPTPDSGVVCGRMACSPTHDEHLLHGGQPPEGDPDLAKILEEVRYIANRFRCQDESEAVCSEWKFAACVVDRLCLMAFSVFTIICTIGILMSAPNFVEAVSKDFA
Data set [4] concerns the target T2, Neuronal acetylcholine receptor subunit alpha-7. Nature of the data set: Agonist activity at human alpha7 nAChR expressed in GH4C1 cells assessed as potentiation of nicotine-induced calcium signal. It is filed as functional, cell-based, GH4-C1.
Data set [5] has the same target. Nature of the data set: Agonist activity at human alpha7 nAChR expressed in GH4C1 cells assessed as potentiation of nicotine-induced calcium signal relative to control. It is filed as functional, cell-based. The settings on record: GH4-C1.
The target in a further data set is Cytochrome P450 2D6 (Homo sapiens, UniProt P10635). Briefly: Inhibition of CYP2D6. It is filed as ADME.
Sequence of Cytochrome P450 2D6 (P10635 whole entry): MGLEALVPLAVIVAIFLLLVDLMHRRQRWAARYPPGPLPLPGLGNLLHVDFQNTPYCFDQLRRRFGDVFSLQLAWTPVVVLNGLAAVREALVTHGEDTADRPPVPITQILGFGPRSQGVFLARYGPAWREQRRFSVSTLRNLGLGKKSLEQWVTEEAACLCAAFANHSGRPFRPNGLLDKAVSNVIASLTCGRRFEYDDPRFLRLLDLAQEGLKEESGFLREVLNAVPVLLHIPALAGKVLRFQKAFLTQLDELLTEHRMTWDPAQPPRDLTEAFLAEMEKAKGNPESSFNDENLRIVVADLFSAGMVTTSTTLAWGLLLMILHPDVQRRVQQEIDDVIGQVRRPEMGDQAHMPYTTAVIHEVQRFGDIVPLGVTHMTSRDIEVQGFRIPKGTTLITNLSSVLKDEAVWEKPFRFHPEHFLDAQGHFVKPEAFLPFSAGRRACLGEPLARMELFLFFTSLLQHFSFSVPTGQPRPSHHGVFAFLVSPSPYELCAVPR
Data set [6] concerns the target T2, Neuronal acetylcholine receptor subunit alpha-7. Briefly: Binding affinity to alpha7 nAChR.
Data set [7] concerns the target Neuronal acetylcholine receptor subunit alpha-7 (Rattus norvegicus) (UniProt Q05941). Briefly: Agonist activity at rat alpha7 nAchR expressed in Xenopus oocyte relative to acetylcholine. It is filed as functional.
In data set [8] the target is T3, Neuronal acetylcholine receptor subunit alpha-7 (Rattus norvegicus, UniProt Q05941). Briefly: Displacement of [3H]A-585539 from alpha7 nAChR rat cortex.
T3 sequence (Q05941 whole entry): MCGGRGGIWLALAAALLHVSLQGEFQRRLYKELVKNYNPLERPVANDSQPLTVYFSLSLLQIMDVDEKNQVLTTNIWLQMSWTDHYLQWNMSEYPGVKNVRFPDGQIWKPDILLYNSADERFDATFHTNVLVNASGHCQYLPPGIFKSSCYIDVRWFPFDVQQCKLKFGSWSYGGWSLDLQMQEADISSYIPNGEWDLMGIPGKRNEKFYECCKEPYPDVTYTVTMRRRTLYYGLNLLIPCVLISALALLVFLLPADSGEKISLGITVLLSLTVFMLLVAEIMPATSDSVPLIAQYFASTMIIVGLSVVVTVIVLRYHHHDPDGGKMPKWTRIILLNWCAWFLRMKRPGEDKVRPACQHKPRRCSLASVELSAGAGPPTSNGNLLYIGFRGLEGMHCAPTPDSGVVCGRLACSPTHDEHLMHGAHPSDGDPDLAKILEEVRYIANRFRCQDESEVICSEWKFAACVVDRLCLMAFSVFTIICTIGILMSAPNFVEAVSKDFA
In data set [9] the target is T2, Neuronal acetylcholine receptor subunit alpha-7. Briefly: Agonist activity at human alpha7 nAChR expressed in Xenopus oocytes relative to acetylcholine. It is filed as functional, cell-based. The note with it: Oocyte.
The target is the same in data set [10]. Briefly: Agonist activity at human alpha7 nAChR expressed in Xenopus oocyte. It is filed as functional.
In data set [11] the target is T3, Neuronal acetylcholine receptor subunit alpha-7. Nature of the data set: Agonist activity at rat alpha7 nAchR expressed in Xenopus oocyte. It counts as functional.
For data set [12], the target named is T2, Neuronal acetylcholine receptor subunit alpha-7. Briefly: Displacement of [3H]-MLA from alpha7 nAChR. For orientation: In a radioligand displacement assay an active substance lowers the binding of a labelled ligand.
The target of data set [13] is T4, 5-hydroxytryptamine receptor 3A (Homo sapiens) (UniProt P46098).
T4 sequence (whole entry): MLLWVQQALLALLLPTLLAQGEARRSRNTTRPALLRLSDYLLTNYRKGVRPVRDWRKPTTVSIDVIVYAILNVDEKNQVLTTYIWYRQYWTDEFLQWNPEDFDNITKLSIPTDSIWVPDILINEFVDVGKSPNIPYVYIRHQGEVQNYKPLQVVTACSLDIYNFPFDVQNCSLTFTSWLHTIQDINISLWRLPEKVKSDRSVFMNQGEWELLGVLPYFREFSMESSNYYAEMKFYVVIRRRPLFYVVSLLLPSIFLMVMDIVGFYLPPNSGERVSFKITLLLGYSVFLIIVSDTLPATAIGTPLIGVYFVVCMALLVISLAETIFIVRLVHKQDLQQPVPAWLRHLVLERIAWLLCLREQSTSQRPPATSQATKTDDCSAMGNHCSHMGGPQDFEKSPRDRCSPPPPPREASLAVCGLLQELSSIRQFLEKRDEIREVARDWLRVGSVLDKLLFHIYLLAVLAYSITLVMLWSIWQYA
Briefly: Binding affinity to human 5HT3 receptor at 10 uM by radioligand binding assay.

Data set [14] has as its target T2, Neuronal acetylcholine receptor subunit alpha-7. Nature of the data set: Displacement of [3H]A-585539 from alpha7 nAChR human cortex.
Data set [15] is described as follows: Volume of distribution in rat. It is filed as ADME, organism-based. The note with it: in vivo.
The target in data set [16] is T5, 5-hydroxytryptamine receptor 3A (Homo sapiens, UniProt P46098).
T5 sequence (P46098 whole entry): T4 sequence (whole entry)
Nature of the data set: Displacement of [3H]-BRL-43694 from human 5HT3 receptor.

Data set [17] in a line: Oral bioavailability in dog. It is filed as ADME, organism-based, Canis lupus familiaris. The settings on record: in vivo.
Data set [18] deals with T3, Neuronal acetylcholine receptor subunit alpha-7. Nature of the data set: Binding affinity to alpha7 nAChR in rat brain membranes. It counts as cell membranes.
The target in data set [19] is T2, Neuronal acetylcholine receptor subunit alpha-7. Nature of the data set: Binding affinity to alpha7 nAchR in human frontal cortex membranes. It counts as cell membranes, Membrane.
A short description of data set [20]: Volume of distribution in dog. It is filed as ADME, organism-based, Canis lupus familiaris. The settings on record: in vivo.
For data set [21], the target named is T2, Neuronal acetylcholine receptor subunit alpha-7. Nature of the data set: Agonist activity at alpha7 nAChR. It counts as functional.
The nature of data set [22]: Oral bioavailability in rat. The settings on record: in vivo. It counts as ADME, organism-based.
Data set [23] concerns the target T1, Neuronal acetylcholine receptor; alpha4/beta2. Nature of the data set: Binding affinity to alpha4beta2 nAChR. It is filed as protein-complex assay.
A short description of data set [24]: Oral bioavailability in mouse. It is filed as ADME, organism-based. The settings on record: in vivo.
A short description of data set [25]: Volume of distribution in mouse. It counts as ADME, organism-based. The settings on record: in vivo.
In data set [26] the target is T3, Neuronal acetylcholine receptor subunit alpha-7. Nature of the data set: Displacement of [3H]-MLA from alpha7 nAChR in rat brain membranes. It is filed as cell membranes.

T1 sequence (P17787 whole entry): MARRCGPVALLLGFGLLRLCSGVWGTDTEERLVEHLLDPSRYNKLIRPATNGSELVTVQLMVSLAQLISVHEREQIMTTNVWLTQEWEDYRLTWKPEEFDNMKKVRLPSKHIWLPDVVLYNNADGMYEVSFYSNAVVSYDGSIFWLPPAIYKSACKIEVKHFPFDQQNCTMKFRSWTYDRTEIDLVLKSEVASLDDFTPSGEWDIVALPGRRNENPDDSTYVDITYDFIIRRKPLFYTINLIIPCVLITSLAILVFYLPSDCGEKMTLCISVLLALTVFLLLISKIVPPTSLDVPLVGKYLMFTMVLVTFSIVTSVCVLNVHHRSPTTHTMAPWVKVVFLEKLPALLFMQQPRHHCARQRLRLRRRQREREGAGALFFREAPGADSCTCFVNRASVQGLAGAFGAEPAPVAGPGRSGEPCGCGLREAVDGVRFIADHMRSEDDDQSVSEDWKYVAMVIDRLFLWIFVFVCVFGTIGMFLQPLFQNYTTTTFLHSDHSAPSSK
T1 sequence (P43681 whole entry): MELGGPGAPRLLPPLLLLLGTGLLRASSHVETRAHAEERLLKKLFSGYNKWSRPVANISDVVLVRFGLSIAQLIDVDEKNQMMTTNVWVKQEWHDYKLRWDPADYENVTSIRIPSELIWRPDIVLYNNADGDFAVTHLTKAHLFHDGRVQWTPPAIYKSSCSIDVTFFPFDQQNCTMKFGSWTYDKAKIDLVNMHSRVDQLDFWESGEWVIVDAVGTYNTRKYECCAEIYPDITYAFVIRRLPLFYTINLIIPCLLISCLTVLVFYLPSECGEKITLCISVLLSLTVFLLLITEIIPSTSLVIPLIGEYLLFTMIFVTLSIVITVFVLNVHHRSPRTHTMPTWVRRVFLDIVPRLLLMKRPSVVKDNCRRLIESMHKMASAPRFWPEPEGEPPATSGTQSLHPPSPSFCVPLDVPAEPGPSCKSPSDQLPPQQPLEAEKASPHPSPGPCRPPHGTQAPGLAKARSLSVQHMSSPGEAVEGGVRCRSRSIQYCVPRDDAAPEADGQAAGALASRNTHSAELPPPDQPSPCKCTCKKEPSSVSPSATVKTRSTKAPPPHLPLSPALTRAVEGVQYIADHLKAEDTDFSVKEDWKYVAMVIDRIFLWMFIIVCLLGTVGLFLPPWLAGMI
Sequence of Neuronal acetylcholine receptor subunit alpha-7 (Rattus norvegicus) (Q05941 whole entry): as the sequence (Q05941 whole entry) above

By IC50 is commonly meant the concentration that inhibits the measured activity by half. For `C=CC[C@@H]1CC[C@@H](CC)[C@@H]2CCCCN12`, the figures for the concentration for half-maximal inhibition (IC50) in [1], in data set [2] and in [3] were 5200 nM, 8800 nM and 600 nM, respectively.

A word on the EC50: it is the concentration giving half of the maximal effect. Take `Cn1ccc2cc3c(cc21)CCN3C(=O)Nc1cccnc1`: in data set [4], the concentration giving a half-maximal response (EC50) came out at 1500 nM. In addition, the fold change (FC) in [5] stood at 8.

Broadly, the Ki is the equilibrium dissociation constant of an inhibitor or competing ligand from its target. For the molecule `O=C1O[C@]2(CN3CCC2CC3)CN1c1ccc2sccc2c1`, at Cytochrome P450 2D6, the concentration for half-maximal inhibition (IC50) was greater than 30000 nM. Besides, the affinity in data set [6] corresponds to a Ki of 28 nM.

Broadly, the Emax is the size of the effect at its maximum, as opposed to the concentration needed. The inhibition is the relative decrease from the control value, in per cent. Higher therefore signals a response far below the control. On to `c1cc2cc(-c3ccc(O[C@H]4CN5CCC4CC5)nn3)ccc2[nH]1` [ABT-107], for which the Emax in data set [7] and in data set [9] was 80% in each case. For the same molecule, the Ki in data set [8] was 0.2 nM; in [12], 7 nM; in data set [14] it was 0.2 nM. In addition, the EC50 in [10] and in data set [11] was 50 nM in each case. The same molecule displayed an inhibition in data set [13] of 4%.

In general, Vd refers to the apparent volume that relates the amount in the body to the concentration in plasma or blood. What is called bioavailability is the share of a dose that reaches the circulation, judged against a reference dose that is usually intravenous. A lower bioavailability goes with poor availability. Consider `CN1CC2CN(c3ccc(-c4ccccc4)nn3)CC2C1` (configuration not stated), for which the Vd in data set [15], in data set [20] and in data set [25] was 4 L/kg in each case. The inhibitory constant (Ki) in [16] was 150 nM; in [18] it was 10.8 nM; in data set [19], 17 nM; in data set [23], greater than 100000 nM; in [26] it was 88 nM. The values for the bioavailability in data set [17], in data set [22] and in data set [24] were 22%, 90% and 100%, respectively. For the same molecule, the EC50 in [21] amounted to 4260 nM.
